“Also recorded” adds a separate entry of the source.
How the values were obtained:
[1] = tested on: 3D-cultured human blastoids (WIBR3 OCT4-GFP background); assay: Post implantation WNT modulation of 3D-cultured blastoids; type: cell-based; conditions: for OCT4-GFP reporter area (ratio of OCT4-GFP area: total blastoid area; EPI compartment) / OCT4-GFP signal intensity / invasive trophoblast projections / overall blastoid size (area): 2 μM in N2B27+E2, D8 to D14, 3D ECM, analysed at D14, vs control; for CTB shell: 2 μM, 6 days of treatment, D14 of 3D culture
From the text: Blastoids can be transferred on either day 7 or day 8 of growth. Due to the inaccessibility of commercially available extracellular matrix products during the experimentation phases of this project, multiple matrices were utilized in this study-hESC qualified growth factor-reduced Matrigel (Corning), hESC qualified growth factor reduced Geltrex (Gibco), and Cultrex UltriMatrix reduced growth factor basement membrane extract (R&D, BME001). […] Matrices were thawed on ice and kept cold until crosslinking was desired. Matrices mixed together (Matrigel/geltrex) were mixed following thawing and plated into ibidi microwells (120 μL/well) (ibidi, 80826) or alternatively 96 well plates (40 μL/well). Matrices were solidified at 37° C. for 30 minutes. Wash matrices 2 times with DMEM/F12 before adding blastoids. Add N2B27+10 nM estradiol without antibiotics to each well. Plate desired numbers of blastoids to each well (3-5 in an ibidi microwell, 1-2 in a 96 well plate). Place the plate in the incubator (37° C., 5% CO2, 5% 02) for 24 hours. Replace media daily with N2B27+10 nM estradiol without antibiotics. If blastoids are added at 7 days, the following day they may be loosely attached. Wait approximately 28-30 hours following seeding to ensure blastoids are well anchored before changing medium. Polar TE side attaches and the ICM expands compared to the day before when properly attached. On the following day (day 9) the TE collapses. Migratory EVT emerge at day 13. Maintaining proper pH is important for blastoids post implantation, the medium should be at pH=7.2-7.4 by pre-equilibration in the incubator or use freshly made N2B27 that has not oxidized too excessively (media should be pink/orange in color, never purple). WIBR3 OCT4-GFP blastoids were grown to 7 days in blastoid generating conditions (see above) and blastoids with localized single ICM, continuous trophectoderm, and with a round blastocoel cavity were chosen by hand and plated upon a pre-formed 3D matrix (Cultrex UltriMatrix) formed with a 96 well plate (40 μL of Cultrex per well). 2 blastoids per well were plated among 10 wells for each condition in N2B27+1 mM Na Pyruvate+10 nM Estradiol (E2). Blastoids were allowed to attach for approximately 24-30 hours in the incubator (5% CO2, 5% O2, 37° C., 100% humidity). When blastoids attached, TE collapsed, and ICM expanded, medium was changed to N2B27+1 mM Na Pyruvate+10 nM E2+2 μM XAV939 or +2 μM CHIR99021. Media was changed daily and grown in a 37° C., 5% CO2, 5% O2 incubator. Blastoids were fixed in 4% paraformaldehyde as described above on day 14 of total blastoid growth.

[2] = tested on: WIBR3 OCT4-GFP naïve hPSCs; assay: Blastoid formation (cavitation) from 5i/L/A naïve hPSCs in Aggrewells; type: cell-based, human; conditions: for rate of cavitation on omission of the component from the blastoid media: component omitted/removed (Conditions 2-4), D7
Protocol: Naïve hPSCs were dissociated with Accutase for 5 minutes at 37° C. Single cell dissociate naïve stem cells and inactivate accutase enzymes with fibroblast medium. Centrifuge this suspension 1000 rpm for 5 minutes. Remove supernatant and wash once with DMEM/F12, centrifuge 1000 rpm for 5 minutes. Aspirate supernatant and resuspend in 2 mL of 5i/L/A medium. Remove iMEFs from the cell suspension by incubation on gelatin-coated plates for 30-45 minutes at 37° C. 5% CO2. Collect cells and count cells to plate 100,000 cells per 24 well Aggrewell (StemCell Technologies) well. Coat the aggrewells with Anti-adherence solution (StemCell Technologies) for 10 minutes at room temperature. Wash wells once with DMEM/F12, then add 1 mL of 5i/L/A medium. Add naïve stem cells to Aggrewells, 100,000 cells per 500 μL, total medium should be 1.5 mL per well. Centrifuge the plate 1000 rpm for 2 minutes for equal distribution of cell number per microwell. Incubate at 37° C. 5% CO2 and 5% 02 for one day. […]
Cavitation rate was determined by counting individual aggregates at 7 days of blastoid growth in at least 3 24-well wells per condition. Tile scan images of the entire well were stitched together and aggregates vs. cavitated aggregates were manually counted in ImageJ. […] Significance determined by a 1-way ANOVA with multiple comparisons. *p<0.05, **p<0.01.
Blastoid size was determined with ImageJ software by drawing a circle around the entire blastoid, and diameters determined by a single line drawn across the widest apparent part of the blastoid (day 7 n=1901; day 8 n=18). Inner cell mass size was determined by utilizing the OCT4-GFP channel and manually drawing around the brightest region of GFP+ areas (control n=152 blastoids; —CHIR n=130). Significance determined with Welch's t-test, ****p<0.0001.

Molecule | OCT4-GFP reporter area (ratio of OCT4-GFP area: total blastoid area; EPI compartment) [1] | OCT4-GFP signal intensity [1] | invasive trophoblast projections [1] | overall blastoid size (area) [1] | CTB shell [1] | TE expansion (ICM:TE ratio based on OCT4-GFP reporter activity) on omission of the component ([2]; component omitted (Condition 2)) | rate of cavitation on omission of the component from the blastoid media [2]
Cc1c[nH]c(-c2cnc(NCCNc3ccc(C#N)cn3)nc2-c2ccc(Cl)cc2Cl)n1 [CHIR99021] | reduced ratio of OCT4-GFP+ cells | diminished intensity of OCT4-GFP reporter activity | significantly fewer invasive trophoblast projections | larger; also recorded: increased | expansion of the CTB shell | specifically promotes TE expansion | enhanced the rate of cavitation
Oc1nc(-c2ccc(C(F)(F)F)cc2)nc2c1CSCC2 [XAV939] | notable expansion | increase in signal intensity | significantly fewer invasive trophoblast projections | reduced | reduction of the CTB shell |  | 
LIF: recombinant human leukemia inhibitory factor (PeproTech) |  |  |  |  |  |  | without adversely affecting the rate of cavitation
